Source: ChEMBL document CHEMBL5241127, “Design, synthesis and biological evaluation of novel 9-N-substituted-13-alkylberberine derivatives from Chinese medicine as anti-hepatocellular carcinoma agents” (Bioorg Med Chem, 2023)
pIC50: −log10 of the molar value.

Legend:
HepG2 = assay: Antiproliferative activity against human HepG2 cells assessed as inhibition of cell growth incubated for 72 hrs by MTT assay; type: functional, cell-based; conditions: HepG2, 72 h
Quadruplex DNA [1] = assay: Binding affinity to c-MYC G4-quadruplex DNA (unknown origin) using fluorescent tagged FPu18T model assessed as stabilization by measuring change in melting temperature at 2 uM by fluorescence based analysis; type: nucleic-acid assay
DNA = assay: Binding affinity to duplex DNA (unknown origin) using fluorescent tagged F10T model assessed as stabilization by measuring change in melting temperature at 2 uM by fluorescence based analysis; type: nucleic-acid assay
Quadruplex DNA [2] = assay: Binding affinity to c-MYC G4-quadruplex DNA (unknown origin) using fluorescent tagged FPu18T model assessed as stabilization by measuring change in melting temperature at 2 uM incubated in presence of non-fluorescent ds26 DNA by fluorescence based analysis; type: nucleic-acid assay

| pIC50 (HepG2) | ΔTm (Quadruplex DNA [1]) | ΔTm (DNA) | ΔTm (Quadruplex DNA [2]) | Compound |
| --- | --- | --- | --- | --- |
| 5.95 | 18.5 °C | 0.6 °C | 17.4 °C | CCCCCCCCc1c2[n+](cc3c(NCCCN4CCOCC4)c(OC)ccc13)CCc1cc3c(cc1-2)OCO3 |
| 5.64 |  |  |  | CCCCCCCCc1c2[n+](c3c4c(c(OC)ccc14)N(CCO)C=C3)CCc1cc3c(cc1-2)OCO3 |
| 5.91 |  |  |  | CCCCCCCCCCCCc1c2[n+](cc3c(NCCN(C)C)c(OC)ccc13)CCc1cc3c(cc1-2)OCO3 |
| 5.69 |  |  |  | CCCCCCCCCCc1c2[n+](cc3c(NCCO)c(OC)ccc13)CCc1cc3c(cc1-2)OCO3 |
